Test results reported in patent US8623593B1, “GPR 17 agonists and screening assay” (Rheinische Friedrich-Wilhelms-Universität Bonn, priority 2011, dated 2014).
Like-named read-outs stand apart in the source and are kept apart here.

Key:
human GPR17 (hGPR17) [1] = target: T1, human GPR17 (hGPR17) (Homo sapiens, UniProt Q13304); assay: calcium mobilization assay in 1321N1-GPR17 cells; format: cell-based; parameters: expressed in transfected cells; host or cells: 1321N1 human astrocytoma cells, retroviral transfection with pLXSN-GPR17, G418 selection
Method: The sequence for the human GPR17 (short isoform) was subcloned into the vector pLXSN (Clontech Laboratories, CA 94043, USA), which can be used for retroviral transfection of the human astrocytoma cell line 1321N1. […] For the retroviral transfection of 1321N1 astrocytoma cells the packaging cell line GP+envAM12 was cultivated in HXM medium (50 ml of foetal calf serum (FCS), 5 ml of penicillin G/streptomycin solution (final concentration 100 U/ml penicillin, 100 μg/ml streptomycin), 1% ultra glutamine, 0.75 ml of hypoxanthine (10 mg/ml), 12.5 ml of xanthine (10 mg/ml), 1.25 ml of mycophenolic acid (10 mg/ml) and 2 ml of hygromycin B (50 mg/ml) were added to 500 ml DMEM). One day before transfection 1.5×10^6 cells were seeded and incubated overnight at 37° C., 5% CO2 and 95% humidity in a 25 cm^2 cell culture flask containing medium without antibiotics. For at least two hours before transfection the medium was exchanged for 6.25 ml DMEM medium without any additive. Two solutions were prepared for the transfection. The first solution consisted of 25 μl of Lipofectamine™ 2000 (final concentration 2%) and 600 μl of DMEM medium without any additives while the second solution was composed of 6.25 μg of pLXSN-GPR17 and 3.75 μg of pLXSN-VSV-G vector DNA. The second solution was filled up with DMEM medium without any additives. Solution one was incubated for 5 min at room temperature before both solutions were combined and incubated for 20 min, also at room temperature. Afterwards the sample was added to the packaging cell line and incubated for 12-15 h. The medium was then replaced with 3 ml of fresh medium containing 30 μl of a 500 mM sodium butyrate solution. The virus production was stimulated by sodium butyrate and took place by incubation for 48 h at 32° C. and 95% humidity. One day before infection 500,000 of 1321N1 astrocytoma cells were seeded in a 25 cm^2 cell culture flask. After 48 h of virus production, the retroviruses were harvested and sterilised by filtration through a filter with a pore size of […]. The host cell medium was replaced with the sterilized virus supernatant containing 6 μl of polybrene solution (4 mg/ml) and the infection of the host cells took place for further 48 h of incubation at 37° C., 95% humidity and 5% CO2. After incubation, the transfected cells were transferred to a 175 cm^2 cell culture flask and selected by adding medium containing G418. The efficiency of infection and stable transfection using this method was up to 95%.
PLC activation and IP3 accumulation result in a release of calcium from intracellular calcium stores, for example the endoplasmic reticulum. In order to detect the released calcium, cells are loaded with a cell membrane permeable dye, which is converted within the cell into its active form by the cleavage of ester bonds. The active form of the dye binds the released calcium. The fluorescence properties of the dye change after calcium binds to the dye. These changes can be detected automatically and represent the ligand-dependent receptor activation. Cells from two confluently grown (80 to 90%) 175 cm^2 cell culture flasks were needed for a calcium assay using the NOVOstar microplate reader (approximately 150,000 cells per well). Cells were harvested after removing the medium, washed once with PBS buffer and detached using a trypsin/EDTA solution. After incubation for 45 min at 37° C. and 5% CO2, the cells were pelleted by centrifugation (5 min, 200 g). Cells were resuspended in 994 μl of Krebs HEPES buffer (KHB; 118.6 mM NaCl, 4.7 mM KCl, 1.2 mM KH2PO4, 4.2 mM NaHCO3, 11.7 mM D-glucose, 10 mM HEPES (free acid), 1.3 mM MgSO4 and 1.2 mM CaCl2, pH 7.4) and loaded in the absence of light with fluorescent, namely Oregon Green 488 BAPTA-1/AM dye, by incubating them for one hour at 28° C. and 700 rpm in an Eppendorf Thermomixer in the presence of Pluronic F-127. Pluronic F-127 was supplemented so that the cells could better absorb the dye. […]

human GPR17 (hGPR17) [2] = target: T1, human GPR17 (hGPR17); assay: calcium mobilization assay in CHO-GPR17 cells; format: cell-based; parameters: expressed in transfected cells; details: for % of response of compound (± SEM) CHO-GPR17 cells: normalised to response of 0.3 μM RA-II-150; for pEC50 (± SEM) CHO-GPR17: calcium mobilization, CHO-GPR17 cells
Source text: In order to investigate potential differences in receptor signalling as a function of the cellular background, GPR17 was additionally expressed and analysed in a further cell system. Therefore, a recombinant Chinese hamster ovary (CHO) cell line stably expressing GPR17 was generated using the Flp-In™ T-Rex™ expression system. Here, expression of GPR17 was induced after adding doxycycline.
(§1) In order to detect the released calcium, cells are loaded with a cell membrane permeable dye, which is converted within the cell into its active form by the cleavage of ester bonds. The active form of the dye binds the released calcium. The fluorescence properties of the dye change after calcium binds to the dye. These changes can be detected automatically and represent the ligand-dependent receptor activation. Cells from two confluently grown (80 to 90%) 175 cm^2 cell culture flasks were needed for a calcium assay using the NOVOstar microplate reader (approximately 150,000 cells per well). Cells were harvested after removing the medium, washed once with PBS buffer and detached using a trypsin/EDTA solution. After incubation for 45 min at 37° C. and 5% CO2, the cells were pelleted by centrifugation (5 min, 200 g). […] The cells were washed twice with 1 ml of KHB buffer (three centrifugation steps, each for 15 sec at 2700 rpm) before being seeded in a 96-well microplate in a total volume of 180 μl. A 10-fold concentrated agonist solution (35 μl) was added to another 96-well microplate with a V-profile. Both plates were placed into the NOVOstar microplate reader and incubated there for 20 min. After incubation, the required gain was determined by the microplate so that the fluorescence background of the cells was between 38,000 and 42,000 fluorescence units. This background is an optimal range for starting the measurement, because it is in the middle of the reader's detection range. Normally, the background in each well of a microplate should be the same. The background was determined by performing a so-called validation. A validation is performed to detect irregularities in cell densities between different wells, fluorescence or absorption properties as well as unspecific antagonist effects. […] Afterwards, 20 μl of agonist were injected from the source plate to the measurement plate by the injector unit of the NOVOstar, and the increase in fluorescence was determined as a function of the calcium efflux resulting from receptor stimulation.

Native 1321N1 cells = assay: calcium mobilization assay, unspecific effects on native 1321N1 cells; format: cell-based, human; details: normalised to response of 100 μM carbachol
Source text: as §1

CHO-K1 cells = assay: calcium mobilization assay, unspecific effects on native CHO-K1 cells; format: cell-based, Chinese hamster; details: normalised to response of 100 μM ATP
Source text: as §1

solubility in solvents = format: physicochemical
[3] = 30 μM compound, normalised to response of 30 μM RA-II-150
[4] = calcium mobilization, 1321N1-GPR17 cells

T1 sequence (Q13304 29-367): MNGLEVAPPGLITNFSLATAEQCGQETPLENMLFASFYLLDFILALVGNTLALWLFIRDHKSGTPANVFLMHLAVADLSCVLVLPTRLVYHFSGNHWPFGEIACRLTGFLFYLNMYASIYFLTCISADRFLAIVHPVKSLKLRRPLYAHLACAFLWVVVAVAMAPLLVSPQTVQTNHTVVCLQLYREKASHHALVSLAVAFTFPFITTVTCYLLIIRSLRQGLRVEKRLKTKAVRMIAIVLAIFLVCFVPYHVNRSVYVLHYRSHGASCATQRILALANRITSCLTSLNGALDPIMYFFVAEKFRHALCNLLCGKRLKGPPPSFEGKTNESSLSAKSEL

## O=C(O)CCc1c(C(=O)O)n(CCC(=O)O)c2cc(Cl)cc(Cl)c12
Human GPR17 (hGPR17) [1]; [3]
  % of response of 30 μM compound (± SEM) 1321N1-GPR17: 80 (6) %
Human GPR17 (hGPR17) [2]; 1 μM compound
  % of response of compound (± SEM) CHO-GPR17 cells: 85 (5) %
Native 1321N1 cells
  % response of 30 μM compound (± SEM) Native 1321N1 cells: 1 (1)/1 (1) (1 μM compound) %
CHO-K1 cells; 1 μM compound
  % response of compound (± SEM) CHO-K1 cells: 1 (1)/1 (1) (1 μM compound) %

## O=C(O)CCc1c(C(=O)O)[nH]c2cc(Br)cc(Br)c12 [3-(2-Carboxyethyl)-4,6-dibromo-1H-indole-2-carboxylic acid]
Human GPR17 (hGPR17) [1]; 10 μM compound, normalised to response of 30 μM RA-II-150
  % of response of compound (± SEM) 1321N1-GPR17: 106 (1) %
Human GPR17 (hGPR17) [1]; [4]
  pEC50 (± SEM) 1321N1-GPR17: 6.71 (0.01)
Solubility in solvents; methanol, ethanol, ethyl acetate
  solubility in methanol, ethanol and ethyl acetate: well soluble
Solubility in solvents; petrol ether, water, hexane
  solubility in petrol ether, water, hexane: slightly soluble
Human GPR17 (hGPR17) [2]; 0.3 μM compound
  % of response of compound (± SEM) CHO-GPR17 cells: 89 (2) %
Human GPR17 (hGPR17) [2]
  pEC50 (± SEM) CHO-GPR17: 7.87 (0.16)
Native 1321N1 cells
  % response of 30 μM compound (± SEM) Native 1321N1 cells: 0 (1) %
CHO-K1 cells; 0.3 μM compound
  % response of compound (± SEM) CHO-K1 cells: 0 (0) %

## O=C(O)CCc1c(C(=O)O)[nH]c2cc(F)cc(F)c12 [3-(2-Carboxyethyl)-4,6-difluoro-1H-indole-2-carboxylic acid]
Human GPR17 (hGPR17) [1]; [3]
  % of response of 30 μM compound (± SEM) 1321N1-GPR17: 77 (2) %
Human GPR17 (hGPR17) [1]; [4]
  pEC50 (± SEM) 1321N1-GPR17: 5.13 (0.13)
Human GPR17 (hGPR17) [2]; 3 μM compound
  % of response of compound (± SEM) CHO-GPR17 cells: 97 (5) %
Human GPR17 (hGPR17) [2]
  pEC50 (± SEM) CHO-GPR17: 6.79 (0.10)
Native 1321N1 cells
  % response of 30 μM compound (± SEM) Native 1321N1 cells: 2 (1) %
CHO-K1 cells; 3 μM compound
  % response of compound (± SEM) CHO-K1 cells: 1 (2) %

## O=C(O)CCc1c(C(=O)O)[nH]c2cc(I)cc(I)c12 [3-(2-Carboxyethyl)-4,6-diiodo-1H-indole-2-carboxylic acid]
Human GPR17 (hGPR17) [1]; [4]
  pEC50 (± SEM) 1321N1-GPR17: 5.32

## Cc1cc(C)c2c(CCC(=O)O)c(C(=O)O)[nH]c2c1 [3-(2-Carboxyethyl)-4,6-dimethyl-1H-indole-2-carboxylic acid]
Human GPR17 (hGPR17) [1]; [3]
  % of response of 30 μM compound (± SEM) 1321N1-GPR17: 76 (6) %
Human GPR17 (hGPR17) [1]; [4]
  pEC50 (± SEM) 1321N1-GPR17: 4.86 (0.10)
Human GPR17 (hGPR17) [2]; 1 μM compound
  % of response of compound (± SEM) CHO-GPR17 cells: 68 (2) %
Human GPR17 (hGPR17) [2]
  pEC50 (± SEM) CHO-GPR17: 6.47 (0.05)
Native 1321N1 cells
  % response of 30 μM compound (± SEM) Native 1321N1 cells: 1 (1)/1 (1) (1 μM compound) %
CHO-K1 cells; 1 μM compound
  % response of compound (± SEM) CHO-K1 cells: 1 (1)/1 (1) (1 μM compound) %

## O=C(O)CCc1c(C(=O)O)[nH]c2cc(-c3ccccc3)cc(-c3ccccc3)c12 [3-(2-Carboxyethyl)-4,6-diphenyl-1H-indole-2-carboxylic acid]
Human GPR17 (hGPR17) [1]; [4]
  pEC50 (± SEM) 1321N1-GPR17: 5.52

## O=C(O)CCc1c(C(=O)O)[nH]c2cc(Br)ccc12 [3-(2-Carboxyethyl)-6-bromo-1H-indole-2-carboxylic acid]
Human GPR17 (hGPR17) [1]; [4]
  pEC50 (± SEM) 1321N1-GPR17: 5.50

## O=C(O)CCc1c(C(=O)O)[nH]c2cc(Cl)ccc12 [3-(2-Carboxyethyl)-6-chloro-1H-indole-2-carboxylic acid]
Human GPR17 (hGPR17) [1]; [3]
  % of response of 30 μM compound (± SEM) 1321N1-GPR17: 84 (6) %
Human GPR17 (hGPR17) [1]; [4]
  pEC50 (± SEM) 1321N1-GPR17: 5.43 (0.14)
Human GPR17 (hGPR17) [2]; 1 μM compound
  % of response of compound (± SEM) CHO-GPR17 cells: 94 (7) %
Human GPR17 (hGPR17) [2]
  pEC50 (± SEM) CHO-GPR17: 7.69 (0.10)
Native 1321N1 cells
  % response of 30 μM compound (± SEM) Native 1321N1 cells: 4 (3) %
CHO-K1 cells; 0.3 μM compound
  % response of compound (± SEM) CHO-K1 cells: 1 (2) %

## O=C(O)CCc1c(C(=O)O)[nH]c2cc(I)ccc12 [3-(2-Carboxyethyl)-6-iodo-1H-indole-2-carboxylic acid]
Human GPR17 (hGPR17) [1]; [4]
  pEC50 (± SEM) 1321N1-GPR17: 6.15

## O=C(O)CCc1c(C(=O)O)[nH]c2cc(-c3ccccc3)ccc12 [3-(2-Carboxyethyl)-6-phenyl-1H-indole-2-carboxylic acid]
Human GPR17 (hGPR17) [1]; [4]
  pEC50 (± SEM) 1321N1-GPR17: 6.14

## O=C(O)CCc1c(C(=O)O)[nH]c2cc(Cl)cc(Cl)c12 [RA-II-150, 3-(2-carboxyethyl)-4,6-dichloro-1H-indole-2-carboxylic acid]
Human GPR17 (hGPR17) [1]
  % of response of 30 μM compound (± SEM) 1321N1-GPR17: 100 (0)/100 (0) (0.3 μM compound) %
  pEC50 (± SEM) 1321N1-GPR17: 6.09 (0.06)/ 8.20 (0.08)
Human GPR17 (hGPR17) [2]; 0.3 μM compound
  % of response of compound (± SEM) CHO-GPR17 cells: 100 (0)/100 (0) (0.3 μM compound) %
Human GPR17 (hGPR17) [2]
  pEC50 (± SEM) CHO-GPR17: 6.09 (0.06)/ 8.20 (0.08)
Native 1321N1 cells
  % response of 30 μM compound (± SEM) Native 1321N1 cells: 0 (3) %
CHO-K1 cells; 0.1 μM compound
  % response of compound (± SEM) CHO-K1 cells: 0 (1) %
